Data: patent US9724408B2, “Compositions and methods for activating stimulator of interferon gene-dependent signalling” (ADURO BIOTECH, INC., priority 2013, dated 2017)

What was measured:
[1] = tested on: human STING variants (WT, REF, HAQ, AQ and Q); assay: IFNβ-LUC reporter in HEK293T cells expressing human STING alleles; type: cell-based; conditions: 10 μM, digitonin permeabilization, 6 hrs, FIG. 14
Experimental: MSCV2.2 plasmids encoding hSTING(REF)-GFP, hSTING(WT)-GFP, hSTING(HAQ)-GFP, hSTING(Q)-GFP and mSTING(WT)-GFP were obtained from the Vance Laboratory at UC Berkeley. hSTING(AQ)-GFP was derived from hSTING(Q)-GFP using a QuickChange Site-Directed Mutagenesis kit (Stratagene). […] 1×10^4 HEK293T STING cells were seeded in 96-well plates and transiently transfected (using Lipofectamine 2000) with 50 ng of a human IFN-β reporter plasmid (pLuc-IFN-β) expressing the human IFN-β promoter upstream of a luciferase reporter and 10 ng of TK-renilla for normalization. 24 hours later, cells were stimulated with native and synthetic CDN derivative molecules using digitonin permeabalization to ensure uniform uptake. Each STING cell line was stimulated with 10 μM of cyclic [G(3′,5′)pA(3′,5′)p] (cGAMP), cyclic [G(2′,5′)pA(3′,5′)p] […] (RR-CDA), cyclic [A(2′,5′)pA(3′,5′)p] […] (RR-CDG), cyclic [G(2′,5′)pG(3′,5′)p] […] (ML RR-CDG) in 25 ul digitonin buffer (50 mM HEPES, 100 mM KCL, 3 mM MgCl2, 0.1 mM DTT, 85 mM Sucrose, 0.2% BSA, 1 mM ATP, 0.1 mM GTP, 10 ug/ml digitonin). After 20 min, the stimulation mixtures were removed and 200 ul of standard RPMI media was added. After stimulation for 6 hrs, cell lysates were prepared and reporter gene activity measured using the Dual Luciferase Assay System (Promega) on a Spectramax M3 luminometer.

[2] = tested on: CT26 colon carcinoma cells; assay: CT26 colon carcinoma flank tumor model, intratumoral CDN; type: in vivo, BALB/c mice; conditions: for complete inhibition of tumor growth of established CT26 tumors: every three days, three injections, 8 mice per group, FIG. 19B
Experimental: Either CT26 colon carcinoma cells (1×10^5 cells in 100 μL PBS) or 4T1 mammary carcinoma cells (1×10^5 cells in 100 μL PBS) were implanted subcutaneously on the flanks of 6-8 week old female BALB/c mice (8 mice per group). Treatments began when tumors reached a volume of approximately 75 mm^3, which was approximately day 14 post tumor implantation. The compounds Rp, Rp dithio cyclic [A(2′,5′)pA(3′,5′)p] (ML RR-CDA) or Rp, Rp dithio cyclic [G(2′,5′)pG(3′,5′)p] (ML RR-CDG) compounds (25 μg in a total volume of 40 μL HBSS), or HBSS vehicle control, and Rp, Rp dithio cyclic [A(2′,5′)pA(3′,5′)p] (ML RR-CDA) (50 μg in a total volume of 40 μL HBSS) or HBSS vehicle control, were administered by subcutaneous injection into the center of the tumor using a 27 gauge needle. Injections were repeated every three days, for a total of three intratumoral injections.
To determine whether the synthetic derivative CDN molecules elicit durable and effective anti-tumor T-cell immunity, 6-8 week old female BALB/c mice (8 mice per group) were implanted with CT26 colon carcinoma cells (1×10^5 cells in 100 μL PBS). Mice were treated with Rp, Rp dithio cyclic [A(2′,5′)pA(3′,5′)p] (ML RR-CDA) compound ([…] in a total volume of 40 μL HBSS) or HBSS vehicle control, and tumor growth was monitored as per previous example. Mice were bled on day 18 post tumor implantation and PBMCs were isolated by Ficoll gradient (Miltenyi Biotech). 5×10^4 PBMCs were stimulated overnight in an IFNγ ELISpot assay with media alone (unstimulated), or with 1 μM of the endogenous H-2 L^d-restricted tumor rejection antigen AH1 peptide in the presence of 1×10^5 naïve splenocytes as feeder cells. IFN-γ ELISpot plates were developed and quantified using a CTL plate reader and ImmunoSpot software. On day 55 post tumor implantation, surviving mice and age-matched naïve control mice were implanted on the contralateral flank with either CT26 or 4T1 (both 1×10^5 cells in 100 μL PBS) tumor cells (4 mice per group), and monitored for tumor growth.

For `Nc1ncnc2c1ncn2[C@@H]1O[C@@H]2COP(O)(=S)O[C@@H]3C(O)[C@@H](COP(O)(=S)O[C@H]2[C@H]1O)O[C@H]3n1cnc2c(N)ncnc21` (some centres unmarked) [ML RR-CDA, dithio-[RP, RP]-cyclic-[A(2′,5′)pA(3′,5′)p]], the “IFNβ reporter activity, all human STING alleles” value [1] was “strongly induce IFNβ reporter activity by all human STING alleles”, the “rejection of established CT26 colon carcinomas” value ([2]; 50 mg in a total volume of 40 μL HBSS, FIG. 21A) was “all mice treated with ML RR-CDA rejected the growth of established CT26 colon carcinomas” and the “complete inhibition of tumor growth of established CT26 tumors” value [2] was “completely inhibited tumor growth of all established CT26 tumors”.

`Nc1nc2c(ncn2[C@@H]2O[C@@H]3CO[P@@](O)(=S)O[C@@H]4[C@H](O)[C@@H](CO[P@@](O)(=S)O[C@H]3[C@H]2O)O[C@H]4n2cnc3c(=O)[nH]c(N)nc32)c(=O)[nH]1` [ML RR-CDG, dithio-[RP,RP]-cyclic-[G(2′,5′)pG(3′,5′)p]] was tested, and the “IFNβ reporter activity, all human STING alleles” value [1] was “strongly induce IFNβ reporter activity by all human STING alleles” and the “complete inhibition of tumor growth of established CT26 tumors” value [2] was 7 out of 8.
